Source: patent US5587402A, “Regression of mammalian leukemia cell tumors” (priority 1995, dated 1996)

How the values were obtained:
[1] = test system: nontransformed FDC-P1 cells; test: Proliferation of nontransformed FDC-P1 myeloid cells; assay type: cell-based, murine; conditions: Mus musculus, FDC-P1, read-out: inhibition of cell growth
Experimental: (The p210 bcr/abl oncogene is carried on a helper-free retrovirus referred to as "p210.") FDC-P1 myeloid cells are an immature cell line from myeloid lineage derived from mouse bone marrow (Dexter, TM, J. Exp. Med. 152: 1036-1047, 1980).

[2] = test system: isoprenylation of 21-26 kDa proteins in HT29 cells; test: Protein isoprenylation in HT29 cells; assay type: cell-based; conditions: Homo sapiens, HT-29; 1 mM; read-out: decrease of isoprenylation of 21-26 kDa proteins
Experimental: "Isoprenylation" is the addition of a multiple of the 5 carbon isoprene unit to a protein. Our experiments in isoprenylation are reported at Crowell, et al. 1991, J. Biol. Chem. 266: 17679-17685. To test whether a specific monoterpene affects isoprenylation of proteins in cells, cell extracts were incubated with a radioactive isoprene precursor and 0-5 mM of the test monoterpene and then subjected to SDS-PAGE. Because they carried a radioactive label, isoprenylated proteins were visualized by fluorography. As a control, cells were incubated without the monoterpene.
Cells were harvested after trypsin treatment, washed twice with phosphate-buffered saline, suspended in electrophoresis sample buffer (Laemmli, U.K., 1970, Nature 227: 680-685), and either analyzed immediately or stored at -20° C. Whole cell extracts were analyzed by SDS-PAGE on 16-cm×18-cm×0.75-mm gels by the method of Laemmli (supra). The acrylamide concentrations were 5% for the stacking gel and 12% for the separating gel. […] Some fluorograms were analyzed further by densitometry. Where indicated, gels were sliced, dissolved at 50° C. for 3 hours in 0.5 ml of water +0.5 ml of Solvable (Amersham), and then analyzed by scintillation spectrometry in 10 ml of Atomlight (Amersham) mixture. Protein content was measured by the method of Lowry, et al. (1951, J. Biol. Chem. 193: 265-275). […]

[3] = test system: isoprenylation of 21-26 kDa proteins in NIH3T3 (mouse embryo) cells; test: Protein isoprenylation in NIH3T3 cells (21-26 kDa bands, SDS-PAGE fluorography); assay type: cell-based; design: Relative activity (inhibition of isoprenylation of 21-26 kDa proteins): key to the marks not given beside the values; conditions: Experiment 2; 1 mM
Experimental: NIH3T3 (mouse embryo) cells were obtained from the American Type Culture Collection and were grown in Dulbecco's modified Eagle's medium supplemented with 10% calf serum. […] Because they carried a radioactive label, isoprenylated proteins were visualized by fluorography. As a control, cells were incubated without the monoterpene. […] Whole cell extracts were analyzed by SDS-PAGE on 16-cm×18-cm×0.75-mm gels by the method of Laemmli (supra). […] Gels were stained with Coomassie Brilliant Blue, equilibrated for 20 minutes in Amplify (Amersham Corp.) fluorographic reagent, dried under vacuum at 65° C., and exposed to […] Some fluorograms were analyzed further by densitometry. […] Protein content was measured by the method of Lowry, et al. […] FIG. 1 depicts the structures of these monoterpenes.

[4] = test system: nontransformed FDC-P1 cells; test: Cell cycle distribution of nontransformed FDC-P1 cells; assay type: cell-based, murine; conditions: for Cell cycle distribution (% > GO /G1): 24 hours, untreated control 62
Experimental: Table 3 tabulates the effect of P-OH on cell cycle distribution of nontransformed and p210 transformed FDC-P1 cells.
^1 Cells were plated at 2.5 × 10^5 per ml in duplicate well
of a 24well plate in the presence of 10% WEHI3-conditioned media as a
source of IL3 and with the indicated concentration of P--OH. After 24
hours, the cells were fixed in ethanol, permeabilized and stained with
propidium iodide, then analyzed for DNA content by flow cytometry.
^2 FDCP1 = nontransformed cells, Fp210.1 = 210transformed FDCP1 cells

human cancer cell lines = test: Growth of human cancer cell lines (NCI Developmental Therapeutics Program); assay type: cell-based
Experimental: Various concentrations of perillyl alcohol inhibited the growth of a number of human cancer cell lines. FIG. 5A-G is a set of diagrams showing the effects of perillyl alcohol on different cancer cell lines. These experiments were conducted by the National Cancer Institute Developmental Therapeutics Program.

[5] = test system: DMBA-induced rat mammary carcinomas; test: Pair-feeding study: regression and inhibition of DMBA-induced mammary carcinomas in rats; assay type: in vivo, Wistar-Furth female rats
Experimental: We used Wistar-Furth female rats for in vivo studies. Wistar-Furth female rats were obtained from Harlan Sprague-Dawley, Inc., (Madison, Wis.). […] Rates were provided Teklad Lab blox chow and acidified water ad libitum.
The DMBA was dissolved in a stock solution of 20 mg DMBA/ml sesame oil, heated and allowed to cool to room temperature before administration. DMBA (Eastman Kodak, Rochester, N.Y.) was given as a single gastric intubation of 50 mg DMBA/kg rat body weight.
In the pair-feeding study, a group of 70 mammals was treated with DMBA. Beginning four weeks post-carcinogen administration, mammals were weighed and palpated weekly.
Fresh diets were make every 7-10 days. All mammals were provided fresh diet daily to minimize evaporation of the monoterpenes.
In a pair-feeding study, all palpable mammary tumors were classified as either "primary" tumors (i.e., the first tumor(s) palpated with a minimum diameter of 3 mm) or "secondary" tumors (i.e. a palpable tumor arising after initial diet assignment). […] All carcinogen-exposed mammals not bearing a first palpable tumor by week 15 post-carcinogen were removed from the experiment. Complete regression of a tumor was defined as non-palpability for a minimum of three consecutive weeks. All mammals in the pair-feeding study were followed for a minimum of 10 weeks post-diet assignment for tumor growth or regression at primary tumor sites and all other mammary glands. The rats were necropsied if moribund. Complete necropsies were performed on all rats at the termination of the study.

## C=C(C)[C@@H]1CC=C(CO)CC1 [perillyl alcohol]
[1]
  inhibition at 400 µM: < 15%
[2]
  inhibition at 1000 µM: 40%
[3]
  Relative activity (inhibition of isoprenylation of 21-26 kDa proteins): +++++
[4]; 100 μM P--OH
  Cell cycle distribution (% > GO /G1): 57%
[4]; 500 μM P--OH
  Cell cycle distribution (% > GO /G1): 49%
[4]; up to 500 μM
  changes in the cell cycle distribution: only minor changes
Human cancer cell lines; variety of human cancer cell types including leukemia cells (FIG. 5A)
  inhibition of cell growth: inhibition of cell growth
Human cancer cell lines; various concentrations, FIG. 5A-G, all lines
  inhibition of cancer cell growth: inhibited cancer cell growth
[5]; 2.5% perillyl alcohol diet
  development of secondary tumors: inhibited the development of secondary tumors
[5]; 2.5% perillyl alcohol diet, complete regression, pair-fed control 9/29, listed as POH
  Primary Tumor Regression (tumors regressed / tumors): 22/27
[5]; 2.5% perillyl alcohol diet, complete regression, pair-fed control 31%
  Primary Tumor Regression (%): 81%
[5]; 2.5% perillyl alcohol diet, pair-fed control 1.62
  Number of Secondary Tumors/Rat: 0.04
[5]; 2.5% perillyl alcohol diet, pair-fed control 5.6, listed as POH
  Time to Regress: 3.6 ± 0.3 wks
[5]; 2.5% perillyl alcohol diet, pair-fed control 11/42
  Secondary Tumor Regression (tumors regressed / tumors): 0/1
[5]; 2.5% perillyl alcohol diet, pair-fed control 26%
  Secondary Tumor Regression (%): 0%
[5]; 2.5% perillyl alcohol diet, pair-fed control 42/26
  secondary tumors / mammals: 1/26
[5]; 2.5% perillyl alcohol versus 10% limonene diet
  amount of perillyl alcohol needed relative to the amount of limonene: 25%
[5]; perillyl alcohol-treated group versus pair-fed controls
  time for a primary tumor to regress to a non-palpable mass: shorter than the time for spontaneous regression in the pair-fed controls
